Source: patent US20210300900A1, “OGA INHIBITOR COMPOUNDS” (Janssen Pharmaceutica NV, priority 2018, published 2021)

Molecular target: T1, recombinant human Meningioma Expressed Antigen 5 (MGEA5), also referred to as O-GcNAcase (OGA) (Homo sapiens, UniProt O60502)
T1 construct: Full length OGA enzyme was purchased at OnGene (cat #TP322411); purchased OnGene (so in the source)
T1 sequence (O60502 1-916): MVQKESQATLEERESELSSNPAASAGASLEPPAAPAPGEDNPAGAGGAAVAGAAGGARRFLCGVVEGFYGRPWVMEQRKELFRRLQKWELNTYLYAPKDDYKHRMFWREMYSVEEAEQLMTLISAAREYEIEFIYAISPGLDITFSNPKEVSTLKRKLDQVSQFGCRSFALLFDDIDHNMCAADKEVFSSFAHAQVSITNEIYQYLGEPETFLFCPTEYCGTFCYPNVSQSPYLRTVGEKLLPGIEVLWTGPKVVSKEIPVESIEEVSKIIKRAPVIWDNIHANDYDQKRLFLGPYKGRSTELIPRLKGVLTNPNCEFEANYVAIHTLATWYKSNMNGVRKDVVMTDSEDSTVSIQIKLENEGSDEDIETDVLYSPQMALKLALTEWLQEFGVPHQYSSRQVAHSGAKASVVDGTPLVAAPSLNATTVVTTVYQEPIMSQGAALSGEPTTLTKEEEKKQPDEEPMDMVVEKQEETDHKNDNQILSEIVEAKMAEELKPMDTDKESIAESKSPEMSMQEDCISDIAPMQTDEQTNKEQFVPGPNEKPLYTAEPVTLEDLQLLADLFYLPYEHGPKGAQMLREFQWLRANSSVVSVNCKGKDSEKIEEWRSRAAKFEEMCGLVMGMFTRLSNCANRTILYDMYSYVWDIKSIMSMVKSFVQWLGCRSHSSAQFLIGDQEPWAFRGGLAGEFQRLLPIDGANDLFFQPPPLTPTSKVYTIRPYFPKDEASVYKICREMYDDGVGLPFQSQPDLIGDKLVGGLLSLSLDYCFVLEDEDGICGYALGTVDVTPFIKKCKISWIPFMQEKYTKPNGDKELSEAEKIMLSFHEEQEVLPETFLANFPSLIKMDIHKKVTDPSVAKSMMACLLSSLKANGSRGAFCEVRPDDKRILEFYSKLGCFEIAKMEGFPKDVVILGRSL
Test: OGA biochemical assay (inhibition of FM-GlcNAc hydrolysis, fluorescence)
Conditions: FM-GlcNAc substrate; for Emax: read-out: Enzymatic Emax (%); for IC50: read-out: Enzymatic hOGA, pIC50 (converted)
From the text: The assay is based on the inhibition of the hydrolysis of fluorescein mono-β-D-N-Acetyl-Glucosamine (FM-GlcNAc) (Mariappa et al. 2015, Biochem J 470:255) by the recombinant human Meningioma Expressed Antigen 5 (MGEA5), also referred to as O-GcNAcase (OGA). The hydrolysis FM-GlcNAc (Marker Gene technologies, cat #M1485) results in the formation of B-D-N-glucosamineacetate and fluorescein. The fluorescence of the latter can be measured at excitation wavelength 485 nm and emission wavelength 538 nm. An increase in enzyme activity results in an increase in fluorescence signal. Full length OGA enzyme was purchased at OnGene (cat #TP322411). The enzyme was stored in 25 mM Tris.HCl, pH 7.3, 100 mM glycine, 10% glycerol at −20° C. Thiamet G and GlcNAcStatin were tested as reference compounds (Yuzwa et al. 2008 Nature Chemical Biology 4:483; Yuzwa et al. 2012 Nature Chemical Biology 8:393). The assay was performed in 200 mM Citrate/phosphate buffer supplemented with 0.005% Tween-20. 35.6 g Na2HPO4 2H2O (Sigma, #C0759) were dissolved in 1 L water to obtain a 200 mM solution. 19.2 g citric acid (Merck, #1.06580) was dissolved in 1 L water to obtain a 100 mM solution. pH of the sodiumphosphate solution was adjusted with the citric acid solution to 7.2. The buffer to stop the reaction consists of a 500 mM Carbonate buffer, pH 11.0. 734 mg FM-GlcNAc were dissolved in 5.48 mL DMSO to obtain a 250 mM solution and was stored at −20° C. OGA was used at a 2 nM concentration and FM-GlcNAc at a 100 uM final concentration. Dilutions were prepared in assay buffer.
50 nl of a compound dissolved in DMSO was dispensed on Black Proxiplate TM 384 Plus Assay plates (Perkin Elmer, #6008269) and 3 μl fl-OGA enzyme mix added subsequently. Plates were pre-incubated for 60 min at room temperature and then 2 μl FM-GlcNAc substrate mix added. […] Plates were briefly centrifuged for 1 min at 1000 rpm and incubate at room temperature for 6 h. To stop the reaction 5 μl STOP buffer were added and plates centrifuge again 1 min at 1000 rpm. Fluorescence was quantified in the Thermo Scientific Fluoroskan Ascent or the PerkinElmer EnVision with excitation wavelength 485 nm and emission wavelength 538 nm.
For analysis a best-fit curve is fitted by a minimum sum of squares method. From this an IC50 value and Hill coefficient was obtained. High control (no inhibitor) and low control (saturating concentrations of standard inhibitor) were used to define the minimum and maximum values.

Structure (SMILES) | Emax [%] | IC50 [nM]
CCOc1cc(C(C)N2CCC[C@H](Cc3cc(C)nc(C)c3)C2)n(C)n1 (mixture of isomers) [Product 17] | 96 | 245
CCOc1cc(C(C)N2CCC[C@H](Cc3cc(C)nc(C)c3)C2)nn1C (mixture of isomers) [Product 18] | 95 | 575
CCOc1nc(C(C)N2CCC[C@H](Cc3cc(C)nc(C)c3)C2)cn1C (mixture of isomers) [Product 24] | 84 | 2000
COc1cc(C(C)N2CCC[C@H](Cc3cc(C)nc(C)c3)C2)on1 (mixture of isomers) [Product 29] | 86 | 1260
CC(=O)Nc1cc(C(C)N2CCC[C@H](Cc3cc(C)nc(C)c3)C2)cnc1C (mixture of isomers) [Product 33] | 99 | 234
COc1ncc(C(C)N2CCC[C@H](Cc3cc(C)nc(C)c3)C2)cc1F (mixture of isomers) [Product 45] | 92 | 955
CCOc1cccc(C(C)N2CCC[C@H](Cc3cc(C)nc(C)c3)C2)n1 (mixture of isomers) [Product 49] | 98 | 219
COc1ccc(C(C)N2CCC[C@H](Cc3cc(C)nc(C)c3)C2)cn1 (mixture of isomers) [Product 52] | 98 | 229
COc1cc(C(C)N2CCC[C@H](Cc3cc(C)nc(C)c3)C2)ccn1 (mixture of isomers) [Product 53] | 99 | 282
Cc1cc(C[C@H]2CCCN(C(C)c3cccc(C(F)(F)F)n3)C2)cc(C)n1 (mixture of isomers) [Product 61] | 84 | 2290
COc1ncc(C(C)N2CCC[C@H](Cc3cc(C)nc(C)c3)C2)cn1 (mixture of isomers) [Product 65] | 93 | 933
COc1cccc(C(C)N2CCC[C@H](Cc3cc(OC)nc(C(F)(F)F)c3)C2)n1 (mixture of isomers) [Product 78] | 101 | 355
COc1ccc(F)c(C(C)N2CC[C@@H](Cc3cc(C)nc(C)c3)C2)n1 (mixture of isomers) [Product 98] | 92 | 1120
COc1cc(C(C)N2CC[C@@H](Cc3cc(C)nc(C)c3)C2)c(F)cn1 (mixture of isomers) [Product 99] | 91 | 646
CNC(=O)c1cc(C(C)N2CC[C@H](Cc3cc(C)nc(OC)c3)C2)n[nH]1 (mixture of isomers) [Product 101] | 75 | 3160
COc1cc(C(C)N2CC[C@@H](Cc3cc(C)nc(OC)c3)C2)c(F)cn1 (mixture of isomers) [Product 102] | 85 | 1700
CNC(=O)c1cncc(C(C)N2CC[C@H](Cc3cc(C)nc(OC)c3)C2)c1 (mixture of isomers) [Product 103] | 85 | 1660
CC(=O)Nc1cc(C(C)N2CC[C@H](Oc3cc(C)nc(C)c3)C2)n[nH]1 (mixture of isomers) [Product 116] | 57 | 8320
CCOc1cc(C(C)N2CC[C@H](Cc3cc(C)nc(C(F)(F)F)c3)C2)n[nH]1 (mixture of isomers) [Product 120] | 75 | 4170
COc1cccc(C(C)N2CC[C@H](Cc3cc(C)nc(C(F)(F)F)c3)C2)n1 (mixture of isomers) [Product 121] | 96 | 741
COc1cccc(C(C)N2CC[C@H](Cc3cc(OC)nc(C(F)(F)F)c3)C2)n1 (mixture of isomers) [Product 123] | 86 | 2820
COc1cc(C[C@H]2CCN(C(C)c3cccc(OC)n3)C2)ccn1 (mixture of isomers) [Product 124] | 51 | 8710
CCOc1cc(C[C@H]2CCN(C(C)c3cccc(OC)n3)C2)ccn1 (mixture of isomers) [Product 125] | 76 | 4170
